Test results taken from patent publication US11180474B2 (BRISTOL-MYERS SQUIBB COMPANY, priority 2016, dated 2021).

Each compound was assayed against T1, human TLR7 (Homo sapiens, UniProt Q9NYK1) (assay: TLR7 inhibition reporter assay (HEK-Blue cells, SEAP reporter, gardiquimod stimulation)). Details: HEK-Blue cells overexpressing human TLR7, gardiquimod 7.5 μM.
T1 construct: host or cells: HEK-Blue cells
T1 sequence (Q9NYK1 27-1049): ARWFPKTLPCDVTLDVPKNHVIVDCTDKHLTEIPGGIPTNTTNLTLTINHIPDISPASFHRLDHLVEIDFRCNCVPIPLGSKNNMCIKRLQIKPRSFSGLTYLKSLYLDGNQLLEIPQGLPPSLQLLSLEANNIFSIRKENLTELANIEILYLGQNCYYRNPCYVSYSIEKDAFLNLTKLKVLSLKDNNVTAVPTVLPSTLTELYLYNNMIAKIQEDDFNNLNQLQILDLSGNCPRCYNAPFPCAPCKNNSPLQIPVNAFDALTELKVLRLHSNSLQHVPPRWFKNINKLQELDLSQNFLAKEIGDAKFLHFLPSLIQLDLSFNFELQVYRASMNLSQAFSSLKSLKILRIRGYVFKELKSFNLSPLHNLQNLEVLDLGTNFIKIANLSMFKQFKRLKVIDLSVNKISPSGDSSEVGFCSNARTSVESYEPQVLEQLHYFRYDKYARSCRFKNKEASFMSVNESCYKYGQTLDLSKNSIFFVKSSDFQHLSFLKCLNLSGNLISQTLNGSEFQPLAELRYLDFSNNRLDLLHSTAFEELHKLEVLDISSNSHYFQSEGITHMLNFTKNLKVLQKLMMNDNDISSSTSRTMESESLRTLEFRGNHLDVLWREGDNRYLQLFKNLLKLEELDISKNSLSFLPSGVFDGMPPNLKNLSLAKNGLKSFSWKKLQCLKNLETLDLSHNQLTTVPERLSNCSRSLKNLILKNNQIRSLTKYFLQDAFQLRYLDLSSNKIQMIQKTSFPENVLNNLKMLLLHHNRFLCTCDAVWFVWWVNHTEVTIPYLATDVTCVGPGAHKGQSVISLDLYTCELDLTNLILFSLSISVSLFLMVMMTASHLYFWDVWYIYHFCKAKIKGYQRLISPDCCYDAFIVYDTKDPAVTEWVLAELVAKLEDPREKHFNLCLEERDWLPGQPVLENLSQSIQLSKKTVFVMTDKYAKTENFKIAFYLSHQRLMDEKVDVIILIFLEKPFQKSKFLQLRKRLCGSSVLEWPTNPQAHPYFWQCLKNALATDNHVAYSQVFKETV
Type: cell-based
Method in brief: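 22 h, 37° C, 5% CO2 incubation; compounds 0.05 nM-50 μM final; TLR7 cells 15000/well, TLR8 20,000/well. Readout: SEAP via HEK-Blue Detection medium. % inhibition = signal reduction versus agonist + DMSO wells, referenced to known inhibitor.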
In the case of COc1ccc(-c2[nH]c3ccc(C4CCN(C(=O)CN5CCCC(C(=O)NC6CCN(C(C)C)CC6)C5)CC4)cc3c2C(C)C)cc1OC (single isomer, unassigned) [Example 280, 1-(2-(4-(2-(3,4-dimethoxyphenyl)-3-isopropyl-1H-indol-5-yl)piperidin-1-yl)-2-oxoethyl)-N-(1-isopropylpiperidin-4-yl)piperidine-3-carboxamide], the IC50 is reported as 26 nM. In the case of COc1ccc(-c2[nH]c3ccc(C4CCN(C(=O)CN5CCCC(C(=O)NC6CCN(C(C)C)CC6)C5)CC4)cc3c2C(C)C)cc1OC (single isomer, unassigned) [Example 281, 1-(2-(4-(2-(3,4-dimethoxyphenyl)-3-isopropyl-1H-indol-5-yl)piperidin-1-yl)-2-oxoethyl)-N-(1-isopropylpiperidin-4-yl)piperidine-3-carboxamide], the IC50 is reported as 17 nM. COc1ccc(-c2[nH]c3ccc(C4CCNCC4O)cc3c2C(C)C)cc1OC (single isomer, unassigned) [Example 317, 4-(2-(3,4-dimethoxyphenyl)-3-isopropyl-1H-indol-5-yl)piperidin-3-ol 2,2,2-trifluoroacetate] was tested, and the IC50 was 38 nM. COc1ccc(-c2[nH]c3ccc(C4CCNCC4O)cc3c2C(C)C)cc1OC (single isomer, unassigned) [Example 318, 4-(2-(3,4-dimethoxyphenyl)-3-isopropyl-1H-indol-5-yl)piperidin-3-ol 2,2,2-trifluoroacetate] was tested, and the IC50 was 3280 nM. Compound COc1ccc(-c2[nH]c3ccc(C4CCN(C5C[C@H]6CC[C@@H](C5)N6C)CC4)cc3c2C)cc1OC (stereo partly drawn) [Example 21, 2-(3,4-dimethoxyphenyl)-3-methyl-5-(1-((1R,5S)-8-methyl-8-azabicyclo[3.2.1]octan-3-yl)piperidin-4-yl)-1H-indole] has an IC50 of 72 nM. COc1ccc(-c2[nH]c3ccc(C4CCN(C5CCN(C6CC6)CC5)CC4)cc3c2C)cc1OC [Example 23, 5-(1′-cyclopropyl-[1,4′-bipiperidin]-4-yl)-2-(3,4-dimethoxyphenyl)-3-methyl-1H-indole] gave an IC50 of 101 nM. With COc1ccc(-c2[nH]c3ccc(C4CCN(C(=O)CN5CCCN(C(C)=O)CC5)CC4)cc3c2C(C)C)cc1OC [Example 222, 2-(4-acetyl-1,4-diazepan-1-yl)-1-(4-(2-(3,4-dimethoxyphenyl)-3-isopropyl-1H-indol-5-yl)piperidin-1-yl)ethan-1-one] the IC50 was 45 nM. COc1ccc(-c2[nH]c3ccc(C4CCN(C(=O)CN5CCOCC5)CC4)cc3c2C(C)C)cc1OC [Example 223, 1-(4-(2-(3,4-dimethoxyphenyl)-3-isopropyl-1H-indol-5-yl)piperidin-1-yl)-2-morpholinoethan-1-one] was tested, and the IC50 was 48 nM. Work on CCN(CC)C(=O)C1CCCN(CC(=O)N2CCC(c3ccc4[nH]c(-c5ccc(OC)c(OC)c5)c(C(C)C)c4c3)CC2)C1 (stereo not shown) [Example 224, 1-(2-(4-(2-(3,4-dimethoxyphenyl)-3-isopropyl-1H-indol-5-yl)piperidin-1-yl)-2-oxoethyl)-N,N-diethylpiperidine-3-carboxamide] yielded an IC50 of 46 nM. COc1ccc(-c2[nH]c3ccc(C4CCN(C(=O)CN5CCCC(CO)C5)CC4)cc3c2C(C)C)cc1OC (stereo not shown) [Example 226, 1-(4-(2-(3,4-dimethoxyphenyl)-3-isopropyl-1H-indol-5-yl)piperidin-1-yl)-2-(3-(hydroxymethyl)piperidin-1-yl)ethan-1-one] showed an IC50 of 16 nM. COc1ccc(-c2[nH]c3ccc(C4CCN(C(=O)CN(C)C(C)C)CC4)cc3c2C(C)C)cc1OC [Example 227, 1-(4-(2-(3,4-dimethoxyphenyl)-3-isopropyl-1H-indol-5-yl)piperidin-1-yl)-2-(isopropyl(methyl)amino) ethan-1-one] was tested, and the IC50 was 29 nM. For COc1ccc(-c2[nH]c3ccc(C4CCN(C(=O)CNCC(N)=O)CC4)cc3c2C(C)C)cc1OC [Example 228, 2-((2-(4-(2-(3,4-dimethoxyphenyl)-3-isopropyl-1H-indol-5-yl)piperidin-1-yl)-2-oxoethyl)amino)acetamide], the IC50 was 46 nM. In the case of COc1ccc(-c2[nH]c3ccc(C4CCN(C(=O)CN5CCN(CC(=O)NC(C)C)CC5)CC4)cc3c2C(C)C)cc1OC [Example 229, 2-(4-(2-(4-(2-(3,4-dimethoxyphenyl)-3-isopropyl-1H-indol-5-yl)piperidin-1-yl)-2-oxoethyl)piperazin-1-yl)-N-isopropylacetamide], the IC50 is reported as 25 nM. In the case of COc1ccc(-c2[nH]c3ccc(C4CCN(C(=O)CNCCOCCO)CC4)cc3c2C(C)C)cc1OC [Example 230, 1-(4-(2-(3,4-dimethoxyphenyl)-3-isopropyl-1H-indol-5-yl)piperidin-1-yl)-2-((2-(2-hydroxyethoxy)ethyl)amino)ethan-1-one], the IC50 is reported as 19 nM. For COc1ccc(-c2[nH]c3ccc(C4CCN(C(=O)CN[C@H](CO)CC(C)C)CC4)cc3c2C(C)C)cc1OC [Example 231, (S)-1-(4-(2-(3,4-dimethoxyphenyl)-3-isopropyl-1H-indol-5-yl)piperidin-1-yl)-2-((1-hydroxy-4-methylpentan-2-yl)amino)ethan-1-one], the IC50 was 96 nM. In the case of COc1ccc(-c2[nH]c3ccc(C4CCN(C(=O)CN[C@H]5CC[C@H](N)CC5)CC4)cc3c2C(C)C)cc1OC [Example 232, 2-(((1r,4r)-4-aminocyclohexyl)amino)-1-(4-(2-(3,4-dimethoxyphenyl)-3-isopropyl-1H-indol-5-yl)piperidin-1-yl)ethan-1-one], the IC50 is reported as 120 nM. For CCC(CO)NCC(=O)N1CCC(c2ccc3[nH]c(-c4ccc(OC)c(OC)c4)c(C(C)C)c3c2)CC1 (stereo not shown) [Example 233, 1-(4-(2-(3,4-dimethoxyphenyl)-3-isopropyl-1H-indol-5-yl)piperidin-1-yl)-2-((1-hydroxybutan-2-yl)amino)ethan-1-one], the IC50 was 23 nM. Work on COc1ccc(-c2[nH]c3ccc(C4CCN(C(=O)CN[C@@H](CO)CC(C)C)CC4)cc3c2C(C)C)cc1OC [Example 234, (R)-1-(4-(2-(3,4-dimethoxyphenyl)-3-isopropyl-1H-indol-5-yl)piperidin-1-yl)-2-((1-hydroxy-4-methylpentan-2-yl)amino) ethan-1-one] yielded an IC50 of 172 nM. With COc1ccc(-c2[nH]c3ccc(C4CCN(C(=O)CNC[C@H](O)CO)CC4)cc3c2C(C)C)cc1OC [Example 235, (S)-2-((2,3-dihydroxypropyl)amino)-1-(4-(2-(3,4-dimethoxyphenyl)-3-isopropyl-1H-indol-5-yl)piperidin-1-yl)ethan-1-one] the IC50 was 15 nM. In the case of COc1ccc(-c2[nH]c3ccc(C4CCN(C(=O)CNC5CCCC5O)CC4)cc3c2C(C)C)cc1OC (stereo not shown) [Example 236, 1-(4-(2-(3,4-dimethoxyphenyl)-3-isopropyl-1H-indol-5-yl)piperidin-1-yl)-2-((2-hydroxycyclopentyl)amino)ethan-1-one], the IC50 is reported as 29 nM. COc1ccc(-c2[nH]c3ccc(C4CCN(C(=O)CNCCC(C)O)CC4)cc3c2C(C)C)cc1OC (stereo not shown) [Example 237, 1-(4-(2-(3,4-dimethoxyphenyl)-3-isopropyl-1H-indol-5-yl)piperidin-1-yl)-2-((3-hydroxybutyl)amino)ethan-1-one] was tested, and the IC50 was 15 nM. For COc1ccc(-c2[nH]c3ccc(C4CCN(C(=O)CN5CCC(O)CC5)CC4)cc3c2C(C)C)cc1OC [Example 238, 1-(4-(2-(3,4-dimethoxyphenyl)-3-isopropyl-1H-indol-5-yl)piperidin-1-yl)-2-(4-hydroxypiperidin-1-yl) ethan-1-one], the IC50 was 36 nM. Compound COc1ccc(-c2[nH]c3ccc(C4CCN(C(=O)CN5CCCN(C)CC5)CC4)cc3c2C(C)C)cc1OC [Example 239, 1-(4-(2-(3,4-dimethoxyphenyl)-3-isopropyl-1H-indol-5-yl)piperidin-1-yl)-2-(4-methyl-1,4-diazepan-1-yl)ethan-1-one] has an IC50 of 11 nM. In the case of COc1ccc(-c2[nH]c3ccc(C4CCN(C(=O)CN5CCN(C(C)C)CC5)CC4)cc3c2C(C)C)cc1OC [Example 240, 1-(4-(2-(3,4-dimethoxyphenyl)-3-isopropyl-1H-indol-5-yl)piperidin-1-yl)-2-(4-isopropylpiperazin-1-yl)ethan-1-one], the IC50 is reported as 11 nM. COc1ccc(-c2[nH]c3ccc(C4CCN(C(=O)CN5CCC(N6CCN(C)CC6)CC5)CC4)cc3c2C(C)C)cc1OC [Example 241, 1-(4-(2-(3,4-dimethoxyphenyl)-3-isopropyl-1H-indol-5-yl)piperidin-1-yl)-2-(4-(4-methylpiperazin-1-yl)piperidin-1-yl)ethan-1-one] was tested, and the IC50 was 12 nM.
